These results are taken from patent US20180049425A1, “Bait Composition” (priority 2016, published 2018).

Assay [1] concerns feral pigs. The conditions noted are these: bait containing 0.13% warfarin by weight of the bait; McIlroy et al.; cited from earlier work.
In the next assay the test system is feral hogs. The experiment in a line: studies using the instant feral hog control system with low dose warfarin bait. Type of assay: in vivo, Sus scrofa. The text has this:
As to particular studies, death of the feral hogs (2) occurred within not greater than about five days following exposure to the bait (3).

Assay [2] has as its system feral pigs. The conditions noted are these: bait containing 0.09% warfarin by weight of the bait; Saunders et al.; cited from earlier work.
[3] abbreviates: bait with about 0.005% warfarin by weight of the bait.
[4] abbreviates: bait with about 0.01% warfarin by weight of the bait.

On to `CC(=O)CC(c1ccccc1)c1c(O)c2ccccc2oc1=O` (stereo not drawn) [warfarin], for which, in the assay with feral pigs [1], the feral pigs dying is reported as 30 of 32 and the “time of dying after bait distribution (mean±s.e.)” value was 9.7 ± 0.4 days. For the same molecule, in the assay with feral hogs (setting [3]), the “death of the feral hogs following exposure to the bait” value is “ten”; the mortality rate was 100%; the “death of the feral hogs following exposure to the bait, particular studies” value was “five”. Moreover, in the assay with feral hogs (setting [4]), the “death of the feral hogs following exposure to the bait” value is on record as “ten”; the mortality rate is given as 100%; the “death of the feral hogs following exposure to the bait, particular studies” value is “five”. The “first death recorded after bait distribution” value in the assay on feral pigs [2] was “six”.
